{"source": "patent US12171813B2", "about": "“Methods of and compositions for reducing gene expression and/or activity” (Christiana Care Gene Editing Institute, Inc., priority 2021, dated 2024)", "test_system": "EGFR gene", "assay": "Screening of SureKill guide RNAs in the EGFR gene for ability to induce indels", "type": "cell-based", "conditions": "transfections of individual guide RNAs (spCas9 RNP); PDMR human lung adenocarcinoma cells with EGFR L858R; DECODR", "procedure": "Human lung squamous cell carcinoma NCI-H1703 clone 44-25 cells were derived from NCI-H1703 cells (#CRL-5889) which were purchased from ATCC (Manassas, VA, USA). NCI-H1703 clone 44-25 cells contains R34G mutation (C 4 G) in NFE2L2 gene. H1703 clone 44-25 cells were cultured in ATCC formulation RPMI-1640 with 10% FBS. T75 flasks were used and cells were split 1:5 upon reaching 90% confluency. Human lung adenocarcinoma cells (Dist. Lot. No. LG0703-F948-PDC) were acquired from the National Institute of Health's National Cancer Institute's Patient-Derived Models Repository (PDMR). This PDMR cell line contains the L858R mutation (T 4 G) in the EGFR gene. The PDMR cells were maintained in Advanced DMEM/F12 media containing 10% FBS, 0.4 μg/mL hydrocortisone, 0.01 μg/mL EGF Recombinant Human Protein, 24 μg/mL adenine, and 2 mM L-Glutamine. T75s were used and cells were split 1:3 upon reaching 90% confluency. All cultures were maintained in cell culture incubators at 37° C. and 5% CO2.\nRibonucleoproteins (RNP) are complexed by incubating 250 pmol of purified synthetic gRNA (Synthego Corporation, Redwood City, CA) with 50 pmol of purified spCas9 (Synthego Corporation, Redwood City, CA) at room temperature in nuclease-free 1× TE buffer for 15 minutes.\nTransfections were carried out using the Lonza Nuclefector 4d. Cultures in t75s at 90% confluence were split 1:2 24 hours prior to transfection. RNPs were complexed at 250:50 pmol for 30 minutes prior to transfection, during which time cells were harvested and counted. All reactions were 100 μL and contained 1 e6 cells. Lonza SF solution and Nucleofector program CM-130 were used in all transfections of the H1703 cell line. Lonza SE solution and Nucleofector program CA-137 were used in all transfections of the PDMR. After transfection, 500 μL of media that had been equilibrated to cell culture CO2 and temperature conditions was added to each 100 μL cuvettes. Cuvettes were then placed in the incubator. After 20 minutes, the entire content of each cuvette was seeded into 3 mL of media in a 6 well plate. After 72 hours, samples were dissociated using 200 μL Trypsin 0.25% for 5 minutes. 800 μL culture media was used to quench and split into 1.5 mL tubes each containing 500 μL of the sample. Tubes were spun at 300×g for 5 minutes. One of the tubes was placed in the −20° C. freezer and the other was resuspended in 500 μL of Trizol for RNA extraction and cDNA synthesis.\nAll sequencing was performed on the Applied Biosystems SeqStudio. The BigDye Terminator v3.1 Cycle Sequencing Kit was used to prepare samples for sequencing. Resulting sequences were analyzed with DECODR to determine indel rates (Bloh et al., CRISPR J. 4:120-31 (2021)).\nHuman EGFR is a frequently mutated gene that is associated with cancers. One of the most common mutations is L858R which results in the creation of a novel PAM site, making it a targetable sequence by CRISPR. Like the R34G mutation, the CRISPR designed to target the L858R mutation is not highly efficient on its own. By combining the L858R-targeting CRISPR with another CRISPR of high efficiency in a downstream intronic region, exon skipping can be induced, resulting in a higher efficiency of functional knockout than the L858R targeting CRISPR alone. To find a suitable gRNA to pair with the L858R targeting CRISPR, we selected the intron between exons 21 and 22 (FIG. 6). A series of gRNAs were created in this region and screened for their ability to induce indels, a measure of their activity using DECODR (Bloh et al., CRISPR J. 4:120-31 (2021)) (Table 3).\nIn Table 3, all sequences are listed from 5′ to 3′. Indel percent, a measure of CRISPR activity, is based on transfections of individual guide RNAs. All guide RNAs, with the exception of L858R, were designed in the intron between exons 21 and 22."}
{"substance": "L858R gRNA: guide RNA TCAAGATCACAGATTTTGGG, SEQ ID NO:8, targets EGFR L858R mutation (listed as DNA, chemistry not given here)", "values": [{"measurement": "indel %", "result": 73.2, "unit": "%"}]}
